Experiment: Discoloration (degradation) after nanoparticle processing by microfluidization
Format: physicochemical
Conditions: after high energy fluidization
Protocol: Nanoparticles were fabricated from epinephrine base or epinephrine bitartrate (Bit) using high energy fluidization (microfluidization) techniques. […] Particles sizes were measured before and after size reduction using a Mastersizer (Malvern) and/or a NiComp 370 Submicron Particle Sizer (NiComp). The particles were lyophilized (freeze-dried) using a bench top lyophilizer (ART Inc.).
The main problem was discoloration (a brown color formed) due to degradation.

SMILES: CNC[C@H](O)c1ccc(O)c(O)c1 [Epinephrine Bit, epinephrine bitartrate]
- Sample Color after Processing (discoloration indicating instability): did not show any discoloration
